Data reported in the supplement of paper PMC4862054.

Columns and labels:
Details in all cases: 72 h
[1] = system: BT-474
How it was run: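 Compound dissolved in 5 µl medium was placed in 384-well plates before 20 µl of breast cancer cell suspension was added, and the plates were incubated for 72 h. Cells then received 2.5 µl CellTiter-Blue for 2 h at 37 °C, and fluorescence was read at 560/590 nm. EC50 values come from percent-inhibition dose-response fits that were censored at the highest concentration, with plates normalised to vehicle and a positive kill control and rows with a zero drug sensitivity score excluded.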

[2] = system: MFM-223
Procedure: (§1)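 Drug sensitivity and resistance testing (DSRT) of breast cancer cell lines in 384-well plates, 5 concentrations in 10-fold dilutions over a compound-specific 10,000-fold range. After 72 h, cytotoxicity was read by CellTox Green fluorescence and viability by CellTiter-Glo luminescence (multiplexed), normalised to DMSO and benzethonium chloride controls. EC50 is the inflection point of the fitted dose-response curve (bottom asymptote free, so it can be relative for partial curves) and is censored at the highest tested concentration. Rows with DSS 0 (no meaningful response) were excluded.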

[3] = system: MCF-10A
Procedure: as §1

[4] = system: BT-474; remark: listed apart in the source
Procedure: as §1

[5] = system: MDA-MB-231
Procedure: as §1

[6] = system: CAL-51
Procedure: as §1

[7] = system: MDA-MB-468
Procedure: as §1

[8] = system: CAL-85-1
Procedure: as §1

[9] = system: HCC1937
Procedure: as §1

[10] = system: DU-4475
Procedure: as §1

[11] = system: HDQ-P1
Procedure: as §1

[12] = system: HCC1599
Procedure: as §1

[13] = system: CAL-120
Procedure: as §1

[14] = system: Hs578T
Procedure: as §1

[15] = system: MDA-MB-436
Procedure: as §1

[16] = system: CAL-148
Procedure: as §1

[17] = system: MDA-MB-453
Procedure: as §1

[18] = system: BT-549
Procedure: as §1

[19] = system: HCC1143
Procedure: as §1

## COC1=C2C[C@@H](C)C[C@H](OC)[C@H](O)[C@@H](C)/C=C(\C)[C@H](OC(N)=O)[C@@H](OC)/C=C\C=C(/C)C(=O)NC(=CC1=O)C2=O [Geldanamycin]
[1]
  EC50, CellTiter-Blue viability: 62 nM
[2]
  EC50, CellTox Green: 8020 nM
[3]
  EC50, CellTox Green: 2370 nM
[4]
  EC50, CellTox Green: 6830 nM
[5]
  EC50, CellTox Green: 4120 nM
[6]
  EC50, CellTox Green: 8440 nM
[7]
  EC50, CellTox Green: 59.8 nM
[8]
  EC50, CellTox Green: 2570 nM
[9]
  EC50, CellTox Green: 2450 nM
[10]
  EC50, CellTox Green: 4720 nM

## O=C(c1ccc(OCCN2CCCCC2)cc1)c1c(-c2ccc(O)cc2)sc2cc(O)ccc12 [Raloxifene]
[11]
  EC50, CellTox Green: > 10000 nM
[12]
  EC50, CellTox Green: > 10000 nM

## C#Cc1cccc(Nc2ncnc3cc(OC)c(OCCCCCCC(=O)NO)cc23)c1 [CUDC-101]
[1]
  EC50, CellTiter-Blue viability: 474 nM
[2]
  EC50, CellTox Green: 1600 nM
[3]
  EC50, CellTox Green: 8030 nM
[13]
  EC50, CellTox Green: 5100 nM
[4]
  EC50, CellTox Green: 2720 nM
[14]
  EC50, CellTox Green: 6670 nM
[15]
  EC50, CellTox Green: 792 nM
[5]
  EC50, CellTox Green: 403 nM
[16]
  EC50, CellTox Green: 1700 nM
[6]
  EC50, CellTox Green: 2460 nM
[17]
  EC50, CellTox Green: 271 nM
[7]
  EC50, CellTox Green: 775 nM
[8]
  EC50, CellTox Green: 208 nM

## CC(C)C[C@H](NC(=O)[C@H](Cc1ccccc1)NC(=O)c1cnccn1)B(O)O [Bortezomib]
[1]
  EC50, CellTiter-Blue viability: 7.19 nM
[11]
  EC50, CellTox Green: 15 nM
[2]
  EC50, CellTox Green: 13 nM
[3]
  EC50, CellTox Green: 210 nM
[13]
  EC50, CellTox Green: 43.8 nM
[4]
  EC50, CellTox Green: 32.8 nM
[14]
  EC50, CellTox Green: 11.7 nM
[15]
  EC50, CellTox Green: 32.4 nM
[5]
  EC50, CellTox Green: 13.9 nM
[16]
  EC50, CellTox Green: 17.2 nM
[6]
  EC50, CellTox Green: 27.5 nM
[18]
  EC50, CellTox Green: 49.3 nM
[17]
  EC50, CellTox Green: 156 nM
[19]
  EC50, CellTox Green: 165 nM
[7]
  EC50, CellTox Green: 1.94 nM
[8]
  EC50, CellTox Green: 5.02 nM
[9]
  EC50, CellTox Green: 11.3 nM
[10]
  EC50, CellTox Green: 229 nM

## CN(c1ccccc1CNc1nc(Nc2ccc3c(c2)CC(=O)N3)ncc1C(F)(F)F)S(C)(=O)=O
[11]
  EC50, CellTox Green: 20.9 nM
[3]
  EC50, CellTox Green: 1730 nM
[14]
  EC50, CellTox Green: 1290 nM
[5]
  EC50, CellTox Green: 1820 nM
[6]
  EC50, CellTox Green: 201 nM
[18]
  EC50, CellTox Green: > 10000 nM
[19]
  EC50, CellTox Green: 72.4 nM
[8]
  EC50, CellTox Green: 4490 nM
[12]
  EC50, CellTox Green: > 10000 nM
